Here are results for seven compounds from EP0494622A1, “Bridged cyclic ketal derivatives” (priority 1991, dated 1992).

≈ marks a conversion by molar mass, not a printed value. Structures can show the parent of a compound that is named as a salt.

One assay addresses T1, squalene synthase (Rattus norvegicus, UniProt Q02769).
T1 construct: from tissue; host or cells: rat liver homogenate
T1 sequence (Q02769 1-416): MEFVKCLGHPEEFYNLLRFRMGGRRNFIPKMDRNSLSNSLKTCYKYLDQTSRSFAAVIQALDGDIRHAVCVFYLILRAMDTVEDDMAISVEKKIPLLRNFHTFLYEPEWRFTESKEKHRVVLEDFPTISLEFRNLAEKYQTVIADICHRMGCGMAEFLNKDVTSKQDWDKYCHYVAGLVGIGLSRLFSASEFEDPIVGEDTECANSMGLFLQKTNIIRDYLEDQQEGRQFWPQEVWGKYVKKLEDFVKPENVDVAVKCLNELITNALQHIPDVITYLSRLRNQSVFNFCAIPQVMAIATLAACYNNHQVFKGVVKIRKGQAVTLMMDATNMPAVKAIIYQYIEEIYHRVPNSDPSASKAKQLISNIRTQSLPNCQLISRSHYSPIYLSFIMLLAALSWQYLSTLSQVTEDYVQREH
The experiment in a line: Inhibition of squalene synthase in rat liver homogenate with [2-14C]farnesylpyrophosphate as substrate; [14C]squalene separated by TLC and counted by liquid scintillation. It counts as biochemical. The following applies: concentration giving 50% inhibition of [14C]squalene production in a 30 minute assay, read-out: IC₅₀. On the procedure: Acta, Volume 877, 50-60 (1986) and modified to include measurement of cholesterol by high performance liquid chromatography (h.p.l.c.).
(§1) [¹⁴C] Squalene was separated from unreacted substrate on thin layer chromatography plates and determined by liquid scintillation counting. Inhibition of squalene synthase was quantified by incubating rat liver homogenate with various concentrations of the test compound in the presence of[2-¹⁴C] farnesylpyrophosphate. The concentration of compound giving 50% inhibition of [¹⁴C] squalene production in a 30 minute assay was taken as the IC₅₀ value. […] In practice, a series of agar plates, each having the test compound incorporated at a particular concentration, was inoculated with a standard culture of a clinically relevant pathogen, for example Candida albicans, and each plate was then incubated at 37 °C for 24 to 48 hours depending on the pathogen. The plates were then examined for the presence or absence of growth of the fungus and the appropriate MIC was noted. In this test the title compounds in Examples 19, Example 3 Compound 1 and Example 7 Compound 1 had MICs in the range of 1 to 31 µg/ml against a variety of clinically relevant pathogens.

Assay [1] relates to a variety of clinically relevant pathogens. In words: In vitro antifungal activity: minimum inhibitory concentration (MIC) on agar plates containing the test compound. Type of assay: cell-based. The following applies: Candida albicans, read-out: MICs. On the procedure: as §1, with “The in vitro evaluation of the anti-fungal activity of compounds of the invention can be performed by determining the minimum inhibitory concentration (MIC) which is the concentration of the test compound in a suitable medium at which growth of a particular microorganism fails to occur. […] A. […] [¹⁴C] Squalene” for “[¹⁴C] Squalene”, “was noted.” for “was noted. In this test the title compounds in Examples 19, Example 3 Compound 1 and Example 7 Compound 1 had MICs in the range of 1 to 31 µg/ml against a variety of clinically relevant pathogens.”

For `C=C(CC[C@]12OC[C@@](O)(C(=O)OC)[C@](C(=O)O)(O1)[C@H](OC(=O)/C=C/[C@@H](C)C[C@@H](C)CC)[C@H]2O)[C@@H](OC(C)=O)[C@H](C)Cc1ccccc1` (relative stereo) [Example 3 Compound 2, [1S-[1α(4R*,5S*),4β,5α,6α(2E,4R*,6R*),7β]] 1-(4-acetyloxy-5-methyl-3-methylene-6-phenylhexyl)-4,6,7-trihydroxy-2,8-dioxabicyclo[3.2.1]octane-4,5-dicarboxylic acid, 6-(4,6-dimethyl-2-octenoate), 4-methyl ester], at squalene synthase, the IC50 is below 100 nM. Same read-out and setting: with `C=C(CC[C@]12O[C@H](CO)[C@@](O)(C(=O)O)[C@](C(=O)O)(O1)[C@H](OC(=O)CC[C@@H](C)C[C@@H](C)CC)[C@H]2O)[C@@H](O)[C@H](C)Cc1ccccc1` (relative stereo) [Example 25, [1S-[1α(4R*,5S*),3α,4β,5α,6α(4S*,6R*),7β]] 1-(4-Hydroxy-5-methyl-3-methylene-6-phenylhexyl)-3-hydroxymethyl-4,6,7-trihydroxy-2,8-dioxabicyclo[3.2.1]octane-4,5-dicarboxylic acid, 6-(4,6-dimethyloctanoate)] the figure was below 100 nM; with `C=C(CC[C@]12O[C@H](CO)[C@@](O)(C(=O)O)[C@](C(=O)O)(O1)[C@H](OC(=O)/C=C/[C@@H](C)C[C@@H](C)CC)[C@H]2O)[C@@H](O)[C@H](C)Cc1ccccc1` (relative stereo) [Example 11, [1S-[1α(4R*,5S*),3α,4β,5α,6α(2E,4R*,6R*),7β]] 1-(4-Hydroxy-5-methyl-3-methylene-6-phenylhexyl)-3-hydroxymethyl-4,6,7-trihydroxy-2,8-dioxabicyclo[3.2.1]octane-4,5-dicarboxylic acid, 6-(4,6-dimethyl-2-octenoate)], below 100 nM; with `C=C(CC[C@]12O[C@H](CO)[C@@](O)(C(=O)OC)[C@](C(=O)O)(O1)[C@H](OC(=O)/C=C/[C@@H](C)C[C@@H](C)CC)[C@H]2O)[C@@H](OC(C)=O)[C@H](C)Cc1ccccc1` (relative stereo) [Example 7 Compound 2, [1S-[1α(4R*,5S*),3α,4β,5α,6α(2E,4R*,6R*),7β]] 1-(4-acetyloxy-5-methyl-3-methylene-6-phenylhexyl)-3-hydroxymethyl-4,6,7-trihydroxy-2,8-dioxabicyclo[3.2.1]octane-4,5-dicarboxylic acid, 6-(4,6-dimethyl-2-octenoate),4-methyl ester], below 100 nM. As for `C=C(CC[C@]12O[C@H](CO)[C@@](O)(C(=O)O)[C@](C(=O)O)(O1)[C@H](OC(=O)CC[C@@H](C)C[C@@H](C)CC)[C@H]2O)[C@@H](OC(C)=O)[C@H](C)Cc1ccccc1` (relative stereo) [Example 10, [1S-[1α(4R*,5S*),3α,4β,5α,6α(4S*,6R*),7β]] 1-(4-Acetyloxy-5-methyl-3-methylene-6-phenylhexyl)-3-hydroxymethyl-4,6,7-trihydroxy-2,8-dioxabicyclo[3.2.1]octane-4,5-dicarboxylic acid, 6-(4,6-dimethyloctanoate), dipotassium salt], the IC50 on squalene synthase was below 100 nM. In the case of `C=C(CC[C@]12OC[C@@](O)(C(=O)O)[C@](C(=O)O)(O1)[C@H](OC(=O)/C=C/[C@@H](C)C[C@@H](C)CC)[C@H]2O)[C@@H](OC(C)=O)[C@H](C)Cc1ccccc1` (relative stereo) [Example 3 Compound 1, [1S-[1α(4R*,5S*),4β,5α,6α(2E,4R*,6R*),7β]] 1-(4-Acetyloxy-5-methyl-3-methylene-6-phenylhexyl)-4,6,7-trihydroxy-2,8-dioxabicyclo [3.2.1]octane-4,5-dicarboxylic acid, 6-(4,6-dimethyl-2-octenoate)], in assay [1], the MIC fell in the range of 1 to 31 µg/mL (≈ 1.55 to 47.9 µM). The IC50 at squalene synthase was below 100 nM. In the same order, the values of `C=C(CC[C@]12O[C@H](CO)[C@@](O)(C(=O)O)[C@](C(=O)O)(O1)[C@H](OC(=O)/C=C/[C@@H](C)C[C@@H](C)CC)[C@H]2O)[C@@H](OC(C)=O)[C@H](C)Cc1ccccc1` (relative stereo) [Example 7 Compound 1, [1S-[1α(4R*,5S*),3α,4β,5α,6α(2E,4R*,6R*),7β]] 1-(4-Acetyloxy-5-methyl-3-methylene-6-phenylhexyl)-3-hydroxymethyl-4,6,7-trihydroxy-2,8-dioxabicyclo[3.2.1]octane-4,5-dicarboxylic acid, 6-(4,6-dimethyl-2-octenoate)] are 1 to 31 µg/mL (≈ 1.48 to 45.8 µM) and below 100 nM.
